Results taken from ChEMBL document CHEMBL1152487, “3D-QSAR studies of HDACs inhibitors using pharmacophore-based alignment” (Eur J Med Chem, 2009).

Assay: Inhibition of HDAC

Question: What does the source list for `Cn1cc(C(=O)Cl)cc1/C=C/C(=O)NO`?
Answer: IC50: 9.65 µM; pIC50: 5.01

Question: Which IC50 does the source give for `O=C(CCc1ccc(NS(=O)(=O)c2ccccc2)cc1)NO` here?
Answer: The IC50 was 0.1 µM.

Question: And the pIC50?
Answer: The pIC50 was 7.

Question: Which IC50 does the source give for `Cn1cc(C=O)cc1/C=C/C(=O)NO` here?
Answer: Its IC50 is 12.2 µM.

Question: What about the pIC50 of the same compound?
Answer: Its pIC50 is 4.92.

Question: What does the source list for `Cc1ccc(S(=O)(=O)Nc2ccc(/C=C/C(=O)NO)cc2)cc1`?
Answer: IC50: 0.3 µM; pIC50: 6.52

Question: With `O=C(CCCCCCC(=O)c1ccc(C(F)(F)F)cc1)NO` as the compound, how does the pIC50 read?
Answer: Its pIC50 is 7.35.

Question: What does the source list for `CC(=O)c1cc(/C=C/C(=O)NO)n(C)c1`?
Answer: IC50: 11.2 µM; pIC50: 4.95

Question: With `O=C(CCCCC/C=C/c1ccc2ccccc2c1)NO` as the compound, how does the pIC50 read?
Answer: Its pIC50 is 8.22.

Question: For `O=C(CCCCCCC(=O)c1ccc(N2CCN(c3ccccc3)CC2)cc1)NO`, which pIC50 is on record?
Answer: Its pIC50 is 8.35.

Question: Which pIC50 does the source give for `O=C(CCCCCCC(=O)c1cccnc1)NO` here?
Answer: The pIC50 was 6.82.

Question: Which results are given for `O=C(CCCCCN1C(=O)c2ccccc2C1=O)NO`?
Answer: IC50: 0.103 µM; pIC50: 6.99

Question: Which results are given for `O=C(/C=C/c1ccc(NS(=O)(=O)c2ccc(Cl)c(Cl)c2)cc1)NO`?
Answer: IC50: 0.1 µM; pIC50: 7

Question: For `Cn1cc(C=O)cc1CCC(=O)NO`, which IC50 is on record?
Answer: Its IC50 is 52.6 µM.

Question: What about the pIC50 of the same compound?
Answer: Its pIC50 is 4.28.

Question: For `O=C(CCCCCCCc1ccc2ccccc2c1)NO`, which pIC50 is on record?
Answer: The pIC50 was 7.6.

Question: With `O=C(/C=C/c1ccc(NS(=O)(=O)c2ccc(Cl)cc2Cl)cc1)NO` as the compound, how does the IC50 read?
Answer: Its IC50 is 0.3 µM.

Question: What about the pIC50 of the same compound?
Answer: The pIC50 was 6.52.

Question: With `COc1ccc(S(=O)(=O)Nc2ccc(/C=C/C(=O)NO)cc2)cc1` as the compound, how does the IC50 read?
Answer: The IC50 was 0.06 µM.

Question: And the pIC50?
Answer: Its pIC50 is 7.22.

Question: For `O=C(Cc1ccc(NS(=O)(=O)c2ccccc2)cc1)NO`, which IC50 is on record?
Answer: Its IC50 is 1 µM.

Question: And the pIC50?
Answer: The pIC50 was 6.
